US8835432B2, “Heterocyclic compounds and their uses” (Amgen Inc., priority 2012, dated 2014)

Legend:
PI3K d = biological target: T1, PI3K d (Homo sapiens, UniProt O00329); experiment: In vitro enzyme assay, PI3K delta; assay type: biochemical
T1 construct: Full length p110 subunits of PI3k α, β and δ, N-terminally labeled with polyHis tag; polyHis (N); made in house; host or cells: Sf9 insect cells (baculovirus)
Method: (§1) Full length p110 subunits of PI3k α, β and δ, N-terminally labeled with polyHis tag, were coexpressed with p85 with Baculo virus expression vectors in sf9 insect cells. P110/p85 heterodimers were purified by sequential Ni-NTA, Q-HP, Superdex-100 chromatography. Purified α, β and δ isozymes were stored at −20° C. in 20 mM Tris, pH 8, 0.2M NaCl, 50% glycerol, 5 mM DTT, 2 mM Na cholate. Truncated PI3Kγ, residues 114-1102, N-terminally labeled with polyHis tag, was expressed with Baculo virus in Hi5 insect cells. The γ isozyme was purified by sequential Ni-NTA, Superdex-200, Q-HP chromatography. The γ isozyme was stored frozen at −80° C. in NaH2PO4, pH 8, 0.2M NaCl, 1% ethylene glycol, 2 mM β-mercaptoethanol.
(§2) Assays were performed in 25 μL with the above final concentrations of components in white polyproplyene plates (Costar 3355). Phospatidyl inositol phosphoacceptor, PtdIns(4,5)P2 P4508, was from Echelon Biosciences. The ATPase activity of the alpha and gamma isozymes was not greatly stimulated by PtdIns(4,5)P2 under these conditions and was therefore omitted from the assay of these isozymes. Test compounds were dissolved in dimethyl sulfoxide and diluted with three-fold serial dilutions. The compound in DMSO (1 μL) was added per test well, and the inhibition relative to reactions containing no compound, with and without enzyme was determined After assay incubation at rt, the reaction was stopped and residual ATP determined by addition of an equal volume of a commercial ATP bioluminescence kit (Perkin Elmer EasyLite) according to the manufacturer's instructions, and detected using a AnalystGT luminometer.

PI3Kg = biological target: T2, PI3Kg (Homo sapiens, UniProt P48736); experiment: In vitro enzyme assay, PI3K gamma; assay type: biochemical
T2 construct: Truncated PI3Kγ, residues 114-1102, N-terminally labeled with polyHis tag; polyHis (N); made in house; host or cells: Hi5 insect cells (baculovirus)
Method: as §1, §2

PI3KIII = biological target: T3, PI3KIII (Homo sapiens, UniProt Q8NEB9); experiment: Class III PI(3)P assay (U20S EGFP-2XFYVE cells); assay type: cell-based
T3 construct: host or cells: U2OS EGFP-2XFYVE cells
Method: (§3) GFP Assays for Detecting Inhibition of Class Ia and Class III PI3K
FYVE domains bind to PI(3)P. the majority is generated by constitutive action of PI3K Class III
Class III PI(3)P assay (U20S EGFP-2XFYVE Cells/GE Healthcare)
Wash cells with assay buffer. Treat with compounds in assay buffer 1 h. Fix and image.
Control for all 3 assays is […] Wortmannin:
PI(3)P depleted from endosomes

PI3Kb [1] = biological target: T4, PI3Kb (Homo sapiens, UniProt P42338); experiment: Forkhead translocation assay (MDA MB468 Forkhead-DiversaGFP cells); assay type: cell-based; design: endogenous in cells; host or cells: MDA MB468 (Forkhead-DiversaGFP) cells; settings: first value of the cell; MDA468 forkhead; read-out: PI3KbMDA468 FH
Method: as §3
Forkhead (FKHRL1) is a substrate for AKT1. It is cytoplasmic when phosphorylated by AKT (survival/growth). Inhibition of AKT (stasis/apoptosis)-forkhead translocation to the nucleus
Forkhead Translocation Assay (MDA MB468 Forkhead-DiversaGFP Cells)
Treat cells with compound in growth medium 1 h. Fix and image.

PI3Ka = biological target: T5, PI3Ka (Homo sapiens, UniProt P42336); experiment: In vitro enzyme assay, PI3K alpha; assay type: biochemical
T5 construct: Full length p110 subunits of PI3k α, β and δ, N-terminally labeled with polyHis tag; polyHis (N); made in house; host or cells: Sf9 insect cells (baculovirus)
Method: as §1, §2

PI3Kb [2] = biological target: T4, PI3Kb; experiment: In vitro enzyme assay, PI3K beta; assay type: biochemical; design: Full length p110 subunits of PI3k α, β and δ, N-terminally labeled with polyHis tag; polyHis (N); made in house; host or cells: Sf9 insect cells (baculovirus); settings: read-out: P13K b IC50
Method: as §1, §2

Human B cells = Human B cells proliferation stimulated by anti-IgM; assay type: cell-based; settings: Hu B Cell anti-IgM, note under the cell, read-out: on target anti-IgM (Hu B Cell anti-IgM)
Method: Human B Cells Proliferation Stimulate by Anti-IgM
Isolate PBMCs from Leukopac or from human fresh blood. Isolate human B cells by using Miltenyi protocol and B cell isolation kit II.-human B cells were Purified by using AutoMacs.column.
Activation of Human B Cells
Use 96 well Flat bottom plate, plate 50000/well purified B cells in B cell proliferation medium (DMEM+5% FCS, 10 mM Hepes, 50 μM 2-mercaptoethanol); 150 μL medium contain 250 ng/mL CD40L-LZ recombinant protein (Amgen) and 2 μg/mL anti-Human IgM antibody (Jackson ImmunoReseach Lab.#109-006-129), mixed with 50 μL B cell medium containing PI3K inhibitors and incubate 72 h at 37° C. incubator. After 72 h, pulse labeling B cells with 0.5-1 uCi/well ^3H thymidine for overnight ˜18 h, and harvest cell using TOM harvester.

PI3K b = experiment: In vitro enzyme assay, PI3K beta; assay type: biochemical; settings: ratio of beta to delta IC50
Method: as §1, §2

T2 sequence (P48736 114-1102): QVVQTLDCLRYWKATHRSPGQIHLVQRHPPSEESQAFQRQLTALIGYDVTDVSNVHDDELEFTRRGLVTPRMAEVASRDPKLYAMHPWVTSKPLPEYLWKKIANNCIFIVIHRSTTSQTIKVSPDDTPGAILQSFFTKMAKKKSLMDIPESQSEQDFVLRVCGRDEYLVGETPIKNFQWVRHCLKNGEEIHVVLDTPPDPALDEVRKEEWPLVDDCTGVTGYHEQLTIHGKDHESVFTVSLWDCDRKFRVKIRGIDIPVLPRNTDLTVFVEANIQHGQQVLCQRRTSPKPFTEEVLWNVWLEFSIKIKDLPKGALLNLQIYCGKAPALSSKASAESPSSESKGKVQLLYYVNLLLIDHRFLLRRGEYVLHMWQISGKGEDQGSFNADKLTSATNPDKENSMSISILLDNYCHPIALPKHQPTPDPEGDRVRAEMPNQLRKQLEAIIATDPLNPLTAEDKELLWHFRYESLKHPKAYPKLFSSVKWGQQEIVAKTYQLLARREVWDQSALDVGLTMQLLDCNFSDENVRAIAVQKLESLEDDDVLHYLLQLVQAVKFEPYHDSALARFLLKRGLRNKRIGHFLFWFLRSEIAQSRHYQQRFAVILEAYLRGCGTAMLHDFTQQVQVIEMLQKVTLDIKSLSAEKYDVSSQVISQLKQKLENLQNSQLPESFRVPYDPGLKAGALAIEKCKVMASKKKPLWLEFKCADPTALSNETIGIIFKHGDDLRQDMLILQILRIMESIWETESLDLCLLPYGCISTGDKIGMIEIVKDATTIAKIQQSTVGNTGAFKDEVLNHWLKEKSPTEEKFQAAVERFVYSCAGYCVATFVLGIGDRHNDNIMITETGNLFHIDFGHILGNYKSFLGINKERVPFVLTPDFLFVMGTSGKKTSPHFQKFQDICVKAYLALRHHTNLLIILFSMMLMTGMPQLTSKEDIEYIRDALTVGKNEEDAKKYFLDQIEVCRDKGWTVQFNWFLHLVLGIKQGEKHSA
T4 sequence (P42338 whole entry): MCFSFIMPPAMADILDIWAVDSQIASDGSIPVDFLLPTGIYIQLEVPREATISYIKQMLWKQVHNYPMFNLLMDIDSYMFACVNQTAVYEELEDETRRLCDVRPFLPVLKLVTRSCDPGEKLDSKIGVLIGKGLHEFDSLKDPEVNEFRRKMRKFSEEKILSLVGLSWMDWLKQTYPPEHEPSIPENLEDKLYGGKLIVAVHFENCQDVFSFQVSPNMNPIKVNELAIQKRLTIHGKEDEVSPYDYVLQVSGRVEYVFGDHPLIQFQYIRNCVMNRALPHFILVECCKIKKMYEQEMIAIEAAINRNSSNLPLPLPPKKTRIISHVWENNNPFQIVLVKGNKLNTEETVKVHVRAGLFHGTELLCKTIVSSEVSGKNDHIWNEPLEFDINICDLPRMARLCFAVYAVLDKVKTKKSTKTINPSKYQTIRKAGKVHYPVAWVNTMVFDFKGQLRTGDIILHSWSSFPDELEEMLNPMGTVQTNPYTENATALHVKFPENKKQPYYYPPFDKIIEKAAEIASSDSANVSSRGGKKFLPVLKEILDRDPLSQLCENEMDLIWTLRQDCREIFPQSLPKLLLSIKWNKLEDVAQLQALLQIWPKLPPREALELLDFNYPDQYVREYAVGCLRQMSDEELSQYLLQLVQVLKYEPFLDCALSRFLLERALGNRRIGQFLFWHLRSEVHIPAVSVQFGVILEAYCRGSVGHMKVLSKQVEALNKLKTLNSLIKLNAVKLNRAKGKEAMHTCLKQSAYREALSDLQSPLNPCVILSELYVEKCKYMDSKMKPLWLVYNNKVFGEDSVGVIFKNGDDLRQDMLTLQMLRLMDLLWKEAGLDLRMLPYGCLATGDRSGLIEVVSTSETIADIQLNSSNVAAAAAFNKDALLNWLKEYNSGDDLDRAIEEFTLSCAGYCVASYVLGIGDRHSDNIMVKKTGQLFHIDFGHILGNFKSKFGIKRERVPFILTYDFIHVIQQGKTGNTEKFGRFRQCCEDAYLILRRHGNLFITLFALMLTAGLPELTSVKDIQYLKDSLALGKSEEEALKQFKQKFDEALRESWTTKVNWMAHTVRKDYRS
T4 sequence (P27986 whole entry partner): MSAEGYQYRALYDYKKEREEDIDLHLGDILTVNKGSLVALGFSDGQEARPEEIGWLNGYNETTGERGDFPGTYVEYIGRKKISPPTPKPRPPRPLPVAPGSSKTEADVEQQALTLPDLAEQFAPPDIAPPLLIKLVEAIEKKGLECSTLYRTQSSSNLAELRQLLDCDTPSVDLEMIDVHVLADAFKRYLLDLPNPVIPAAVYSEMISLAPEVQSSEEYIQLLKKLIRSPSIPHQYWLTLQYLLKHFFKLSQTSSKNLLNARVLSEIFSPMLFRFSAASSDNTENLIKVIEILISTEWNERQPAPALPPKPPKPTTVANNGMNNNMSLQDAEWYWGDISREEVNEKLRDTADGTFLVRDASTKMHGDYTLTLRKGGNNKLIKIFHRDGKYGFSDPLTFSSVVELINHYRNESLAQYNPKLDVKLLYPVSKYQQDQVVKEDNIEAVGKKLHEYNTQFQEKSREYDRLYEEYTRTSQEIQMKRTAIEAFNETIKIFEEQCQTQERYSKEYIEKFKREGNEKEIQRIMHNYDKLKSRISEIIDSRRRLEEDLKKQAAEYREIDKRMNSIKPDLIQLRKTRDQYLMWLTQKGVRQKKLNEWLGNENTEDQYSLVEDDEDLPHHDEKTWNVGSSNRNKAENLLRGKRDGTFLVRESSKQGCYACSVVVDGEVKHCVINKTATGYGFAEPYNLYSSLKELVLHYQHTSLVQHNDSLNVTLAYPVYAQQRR
T5 sequence (P42336 whole entry): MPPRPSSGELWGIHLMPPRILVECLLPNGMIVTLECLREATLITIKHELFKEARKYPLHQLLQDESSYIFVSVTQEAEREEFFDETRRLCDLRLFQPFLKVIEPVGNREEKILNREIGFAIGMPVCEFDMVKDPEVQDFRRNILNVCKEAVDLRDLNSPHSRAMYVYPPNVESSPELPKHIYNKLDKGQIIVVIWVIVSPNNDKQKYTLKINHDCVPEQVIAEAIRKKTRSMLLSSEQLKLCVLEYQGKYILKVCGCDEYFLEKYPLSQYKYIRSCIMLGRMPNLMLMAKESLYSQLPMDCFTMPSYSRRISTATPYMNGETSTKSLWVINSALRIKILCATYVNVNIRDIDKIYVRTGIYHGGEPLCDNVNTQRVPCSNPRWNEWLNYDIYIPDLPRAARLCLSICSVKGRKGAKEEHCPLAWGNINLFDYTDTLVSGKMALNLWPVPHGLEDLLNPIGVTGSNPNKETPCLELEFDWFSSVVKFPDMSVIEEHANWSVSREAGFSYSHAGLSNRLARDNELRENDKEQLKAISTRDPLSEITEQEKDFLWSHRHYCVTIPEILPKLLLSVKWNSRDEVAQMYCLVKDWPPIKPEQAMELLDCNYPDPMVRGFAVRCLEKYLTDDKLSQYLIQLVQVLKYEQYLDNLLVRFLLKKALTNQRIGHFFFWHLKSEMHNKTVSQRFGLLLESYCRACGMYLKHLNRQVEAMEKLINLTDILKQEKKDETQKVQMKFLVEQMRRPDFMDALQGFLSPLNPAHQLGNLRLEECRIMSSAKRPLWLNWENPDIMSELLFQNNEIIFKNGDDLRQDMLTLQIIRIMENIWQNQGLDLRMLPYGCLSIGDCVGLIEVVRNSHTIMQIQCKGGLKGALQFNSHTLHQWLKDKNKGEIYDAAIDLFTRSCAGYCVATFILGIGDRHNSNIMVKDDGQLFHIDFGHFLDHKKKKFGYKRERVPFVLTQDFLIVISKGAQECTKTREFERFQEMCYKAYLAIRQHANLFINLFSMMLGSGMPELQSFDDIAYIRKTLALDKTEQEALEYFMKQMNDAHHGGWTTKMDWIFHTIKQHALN
T5 sequence (P27986 whole entry partner): as the sequence (P27986 whole entry partner) above
T3 sequence (Q8NEB9 whole entry): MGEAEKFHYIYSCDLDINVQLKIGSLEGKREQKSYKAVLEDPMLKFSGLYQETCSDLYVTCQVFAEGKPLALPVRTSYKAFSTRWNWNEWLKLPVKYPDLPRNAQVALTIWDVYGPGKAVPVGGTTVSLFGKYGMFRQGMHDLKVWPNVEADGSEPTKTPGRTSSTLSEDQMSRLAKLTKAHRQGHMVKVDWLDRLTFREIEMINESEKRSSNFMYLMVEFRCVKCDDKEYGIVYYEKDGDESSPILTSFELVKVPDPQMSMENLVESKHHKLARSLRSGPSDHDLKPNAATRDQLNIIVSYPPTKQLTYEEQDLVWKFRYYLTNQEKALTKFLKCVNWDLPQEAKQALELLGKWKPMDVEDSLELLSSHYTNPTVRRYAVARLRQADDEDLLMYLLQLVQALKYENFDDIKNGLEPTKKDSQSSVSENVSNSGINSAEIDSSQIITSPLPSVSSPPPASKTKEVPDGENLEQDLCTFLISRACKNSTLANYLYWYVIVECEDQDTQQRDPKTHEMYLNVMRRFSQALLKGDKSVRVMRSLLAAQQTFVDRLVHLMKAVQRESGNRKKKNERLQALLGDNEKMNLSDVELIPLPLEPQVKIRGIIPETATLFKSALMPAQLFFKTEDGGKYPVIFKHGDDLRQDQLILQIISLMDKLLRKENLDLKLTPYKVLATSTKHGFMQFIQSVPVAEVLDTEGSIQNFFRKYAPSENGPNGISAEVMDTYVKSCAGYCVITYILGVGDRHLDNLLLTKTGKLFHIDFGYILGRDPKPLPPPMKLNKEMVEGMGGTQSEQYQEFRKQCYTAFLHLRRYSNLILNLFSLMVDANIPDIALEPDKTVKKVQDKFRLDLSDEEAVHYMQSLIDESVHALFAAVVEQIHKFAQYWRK

Question: Which results are given for `C[C@H](Nc1ncnc(N)c1C#N)c1nc2ccc(F)cc2nc1-c1ccccn1` [Example 7, (S)-4-Amino-6-((1-(6-fluoro-3-(pyridin-2-yl)quinoxalin-2-yl)ethyl)amino)-pyrimidine-5-carbonitrile]?
Answer: IC50 (PI3K d): 11.7 nM; IC50 (PI3Kg): 3900 nM; PI3K: g/d (PI3Kg; ratio of gamma to delta IC50): 333; IC50 (PI3KIII): > 10000 nM; IC50 (PI3Kb [1]): > 10000 nM; PI3Ka IC50 (PI3Ka): 12700 nM; PI3K: a/d (PI3Ka; ratio of alpha to delta IC50): 1085; IC50 (PI3Kb [2]): 2490 nM; IC50 (Human B cells): 10.4 nM; PI3K: b/d (PI3K b): 213
